From patent EP0738513A1, “Method for using ergoline compounds to effect physiological and pathological functions at the 5-HT7 receptor” (ELI LILLY AND COMPANY, priority 1995, dated 1996)
Where two headings read alike, the source gives them in different places.

How the values were obtained:
[1] = tested on: 5-HT7 receptor in the dog coronary artery; experiment: antagonism of 5-HT-induced relaxation in endothelium-denuded canine coronary artery rings precontracted with PGF2α; format: cell-based, mongrel dogs; details: for relaxant activity as agonist in canine coronary artery: agonist alone; for pA2 (-log KB): antagonist dissociation constant against 5-HT-induced relaxation, Schild analysis for compounds II and IV
Description: (§1) Hearts were obtained from mongrel dogs anesthetized with sodium pentobarbital (30mg/kg, i.v.) and placed in oxygenated modified Krebs' solution of the following composition (millimolar): NaCl, 118; KCl, 4.6; CaCl2, 1.6; KH2PO4, 1.2; MgSO4 1.2, glucose, 10; NaHCO3 24.8 (pH 7.4). The left anterior descending and circumflex coronary arteries were dissected from the hearts, cleaned of fat and adhering tissue and cut into rings (approximately 2-3mm outer diameter and 4-5mm in length). The intimal surface of the rings was gently rubbed with a pair of forceps to remove the endothelium. Tissues were then mounted between two stainless steel hooks and placed in 10ml organ chambers constantly exposed to oxygenated modified Krebs' solution (95% O2/5% CO2; pH 7.4; 37°C). Tissues were equilibrated for 1 hour under an initial optimal passive force of 4g determined previously from length-tension experiments. The buffer was replaced every 15 minutes during equilibration. Isometric force was measured with Statham UC3 force transducers connected to a Beckman dynograph (R611). After lhr equilibration, tissues were depolarized twice with 50mM KCl for 30min with a 20min washing period between. The integrity of the endothelium was examined with acetylcholine (1µM), bradykinin (100nM), or the ionophore A23187 (1µM). Rings that relaxed to these agents were not used in this study.
(§2) Tissues prepared as described in Example 1 were precontracted with PGF2α (10µM) which produced a tonic contraction that remained at or above 92.8±2.1% (n=14) of the original maximum force throughout the experiment. Cumulative concentration-response curves to 5-HT were generated in tissues incubated with either vehicle or antagonist for 1hr. In some experiments contraction was measured in tissues under basal tone upcn the cumulative addition of 5-HT. These tissues were treated with prazosin (1µM) to block any potential α adrenoceptor activation and in the absence or presence of antagonist.
(§3) All results are expressed as mean ± S.E. where "n" represents the number of rings examined. No more than two rings were used from each animal for each compound studied. The relaxation data is expressed as percent relaxation of the contraction produced by PGF2α . The contraction data is expressed as percent of a maximal KCl (50mM) contraction. The EC50 was the concentration of the agonist producing half-maximal response and was determined by least squares linear regression analysis of the linear portion of the agonist concentration-response curve and expressed as -log EC50 (pEC50).
Apparent antagonist dissociation constants (KB) were determined for each antagonist according to the following equation: KB =((B))/((dose ratio -1)) [formula] where (B) is the concentration of the antagonist and dose ratio is the EC50 of the agonist in the presence of the antagonist divided by the EC50 of the agonist in vehicle treated tissues. […] Significant differences between vehicle and antagonist treated tissues were determined with Student's t-test. The alpha value was set a priori at 0.05.
The data was also analyzed in accord with the procedure of Arunlakshana and Schild (1959). The dose ratio was determined at various concentrations of antagonist compound II or compound IV. If blockade is competitive under equilibrium conditions a plot of the logarithm (dose ratio - 1) against the negative logarithm of the molar concentration of antagonist should yield a straight line whose slope is not different from unity and whose intercept on the abscissa is the pA2, which is generally considered to be equivalent to -log KB.

[2] = tested on: endothelium denuded canine coronary artery; experiment: agonist-induced contraction in endothelium-denuded canine coronary artery under basal tone; format: cell-based, mongrel dogs; details: for contractile response as agonist: no antagonist
Description: as §1, §2, §3

human 5-HT7 receptor = human 5-HT7 receptor (Homo sapiens, UniProt P34969); experiment: receptor binding studies at the human 5-HT7 receptor
Sequence of human 5-HT7 receptor (P34969 whole entry): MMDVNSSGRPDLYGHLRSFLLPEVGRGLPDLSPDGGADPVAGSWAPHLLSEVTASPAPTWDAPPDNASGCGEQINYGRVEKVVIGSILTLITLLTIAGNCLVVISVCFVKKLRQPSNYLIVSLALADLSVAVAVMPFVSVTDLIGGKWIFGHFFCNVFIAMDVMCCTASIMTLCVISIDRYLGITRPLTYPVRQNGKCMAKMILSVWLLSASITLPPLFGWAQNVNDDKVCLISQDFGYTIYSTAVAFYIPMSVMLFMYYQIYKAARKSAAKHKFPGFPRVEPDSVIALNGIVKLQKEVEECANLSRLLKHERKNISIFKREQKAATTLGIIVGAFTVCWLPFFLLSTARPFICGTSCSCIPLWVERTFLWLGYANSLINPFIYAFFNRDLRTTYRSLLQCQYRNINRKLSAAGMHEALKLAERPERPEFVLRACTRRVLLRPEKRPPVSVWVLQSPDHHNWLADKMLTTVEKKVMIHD
Source text: The general chemical structure for three particularly useful compounds of the invention (compounds III - V) are shown below: [drawing 3]

[3] = bioavailability after oral administration in rats; format: in vivo; details: comparative statement
5-HT7 receptor = 5-HT7 receptor (Rattus norvegicus, UniProt P32305); details: receptor expressed in mammalian cells; Shen at 18200; cited from earlier work
Sequence of 5-HT7 receptor (P32305 whole entry): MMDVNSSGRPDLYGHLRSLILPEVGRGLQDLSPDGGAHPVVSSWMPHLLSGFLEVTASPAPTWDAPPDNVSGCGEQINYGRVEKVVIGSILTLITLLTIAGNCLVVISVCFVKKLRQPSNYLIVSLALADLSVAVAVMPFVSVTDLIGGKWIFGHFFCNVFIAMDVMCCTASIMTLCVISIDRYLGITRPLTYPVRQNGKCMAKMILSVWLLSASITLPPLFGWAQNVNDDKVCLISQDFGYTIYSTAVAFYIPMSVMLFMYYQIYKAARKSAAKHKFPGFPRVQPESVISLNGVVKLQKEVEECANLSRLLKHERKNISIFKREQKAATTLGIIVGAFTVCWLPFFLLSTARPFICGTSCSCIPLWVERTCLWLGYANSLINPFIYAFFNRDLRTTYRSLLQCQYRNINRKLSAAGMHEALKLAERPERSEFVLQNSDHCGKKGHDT

[4] = rings precontracted with PGF2α (10µM)
[5] = antagonist 0.3-10µM, rings precontracted with PGF2α (10µM)
[6] = antagonist 1µM, vessels under basal tone

NCCc1c[nH]c2ccc(C(N)=O)cc12 [5-CT, 5-carboxamidotryptamine]
relaxant activity as agonist in canine coronary artery [1]: potent relaxant agonist
contractile response as agonist in the presence of compound IV ([2]; basal tone, compound IV (1µm) present to block relaxation): concentration-dependently contracted
contractile response as agonist ([2]; vessels under basal tone): did not significantly contract

NCCc1c[nH]c2ccc(O)cc12 [5-HT, 5-hydroxytryptamine]
contractile response as agonist ([2]; vessels under basal tone): biphasic contractile response

COc1ccc2[nH]cc(CCN)c2c1 [5-MeOT, 5-methoxytryptamine]
contractile response as agonist ([2]; vessels under basal tone): biphasic contractile response

CC(C)n1cc2c3c(cccc31)C1CC(C(=O)NC3CCCCC3)CN(C)C1C2 (stereo not shown) [COMPOUND III]
Kd (human 5-HT7 receptor; read-out: -log KD (converted)): 25.1 nM
Kd (human 5-HT7 receptor; read-out: KD): 27.1 ± 1.5 nM
effect on 5-HT-induced relaxation ([1]; antagonist 1µM): blocked 5-HT-induced relaxation
pA2 (-log KB) [1, 4]: 6.7
bioavailability [3]: greater bioavailability than the ester compounds II and V

CC(O)C(C)OC(=O)C1CC2c3cccc4c3c(cn4C(C)C)CC2N(C)C1 (stereo not shown) [COMPOUND II]
Kd (human 5-HT7 receptor; read-out: -log KD (converted)): 631 nM
Kd (human 5-HT7 receptor; read-out: KD): 609 nM
effect on concentration-response curve to 5-HT (relaxation) [1, 5]: shifted the concentration-response curve to 5-HT significantly to the right
effect on maximum relaxant response to 5-HT [1, 5]: did not alter
pA2 (-log KB) [1, 4]: 6.5

CC(C)n1cc2c3c(cccc31)C1CC(C(=O)NC3CCCC3O)CN(C)C1C2 (stereo not shown) [COMPOUND IV]
Kd (human 5-HT7 receptor; read-out: -log KD (converted)): 12.6 nM
Kd (human 5-HT7 receptor; read-out: KD): 13.3 ± 1.2 nM
effect on 5-HT-induced relaxation ([1]; antagonist 10-100nM): blocked 5-HT-induced relaxation
pA2 (-log KB) [1, 4]: 8.3
effect on sumatriptan-induced contraction ([2]; antagonist 1µM, basal tone): did not significantly affect
effect on contractile response produced by 5-HT and 5-MeOT [2, 6]: not affecting
effect on relaxant phase of the biphasic response to 5-HT and 5-MeOT [2, 6]: significantly attenuated
bioavailability [3]: greater bioavailability than the ester compounds II and V

CN(C)CCC=C1c2ccccc2CCc2ccccc21 [amitriptyline]
affinity of the 5-HT7 receptor to the drug (5-HT7 receptor): high affinity

CNS(=O)(=O)Cc1ccc2[nH]cc(CCN(C)C)c2c1 [sumatriptan]
relaxant activity as agonist in canine coronary artery [1]: lacking relaxant activity
